pIC50: −log10 of the molar value.
Tests used:
[1] = tested on: store-operated calcium entry in RBL-2H3 cells; assay: Fluorescence-based assay of store-operated calcium entry in RBL-2H3 cells; assay type: cell-based; settings: Rattus norvegicus, thapsigargin, FLIPR Fluo-4, read-out: RBL-2H3 (IC50, μmol)
Protocol: B. Fluorescence-Based Assay of Store-Operated Calcium Entry in RBL-2H3 Cells.
RBL-2H3 cells are obtained from ATCC and maintained in complete medium with 10% FBS at 37° C./6% CO2.
The day prior to performing the assay, RBL-2H3 cells are plated in 50 μL of complete medium in a 384 well plate. Cells are grown at 37° C./6% CO2 overnight and grow to 50-60% confluence by the next day. On the assay day, 1.5 μM Fluo-4-AM dye (Invitrogen) in complete medium is added and incubated for 1 hour at RT. Cells are washed twice in Ca^2+-free HBSS buffer and 35 μL Ca^2+-free HBSS buffer is added to each well. 10 μL of a test compound prepared in a Ca^2+-free HBSS solution at 4.5× of the desired concentration is added to a well and incubated for 5 minutes at RT. 10 μL of thapsigargin prepared in a Ca^2+-free HBSS solution at 5.5× of the desired concentration (5.5 uM) is added to each well and incubated for an additional 25 minutes. The initial baseline fluorescence signal is measured with a FLIPR^384 (Molecular Devices) plate reader. 5 μL of 12× calcium in HBSS (12 mM) is added and changes in cellular fluorescence are measured with the FLIPR^384 plate reader. In each well, the change in the fluorescent signal as a function of time due to calcium entry into the cell is determined by calculating the difference between the fluorescent signal measured 7 seconds after calcium addition and the initial baseline fluorescence signal at time zero (t=0). This parameter is designated Upslope. The IC50 value is calculated as the concentration at which 50% of the Upslope is inhibited.

[2] = molecular target: T1, recombinant human STIM1 and Orai1 (HEK-293 cells) (Homo sapiens, UniProt Q96D31); assay: Fluorescence-based assay of store-operated calcium entry in Orai1/STIM1 stable cells; assay type: cell-based; design: key to Orai1/STIM1 (IC50, μmol): A < 0.6 μmol; 0.6 μmol ≦ B ≦ 1.2 μmol; C > 1.2 μmol; — = no fit; settings: for pIC50: FLIPR fluo-4, read-out: Orai1/STIM1 (IC50, μmol); for Orai1/STIM1 (IC50, μmol): FLIPR fluo-4
T1 construct: expressed in transfected cells; host or cells: HEK-293 cells stably expressing both proteins
Protocol: A. Fluorescence-Based Assay of Store-Operated Calcium Entry in Orai1/STIM1 Stable Cells.
Cells stably expressing recombinant human STIM1 and Orai1 are generated by transfecting a human Orai1 expression plasmid (pcDNA3.1-Orai1-cmyc) into HEK-293 cells stably overexpressing human STIM1 (Roos et al. 2005 JCB 169(3): 435-445). Colonies of cells stably expressing both STIM1 and Orai1 proteins are selected and then subcloned by limiting dilution. Cells were cultured at 37° C./6% CO2 in complete medium with 10% FBS and appropriate selection markers.
The day prior to performing the assay Orai1/STIM1 stable cells are plated in 50 μL of complete medium at 90-95% confluence in a 384 well plate. Cells are grown at 37° C./6% CO2 overnight. On the day of the assay, 1.5 μM fluo-4-AM (Invitrogen) in complete medium is added to the cells, which are then incubated for 1 hour at RT. Cells are washed once in Ca^2+-free HBSS (Hank's buffered saline solution) and 35 μl of Ca^2+-free HBSS is added to each well. Test compounds are added to wells in a 10 μL Ca^2+-free HBSS solution, prepared at 4.5× the desired final concentration, and incubated for 30 minutes at RT. The initial baseline fluorescence signal is then measured with a FLIPR^384 (Molecular Devices) plate reader. Calcium entry is initiated by adding 5 μl of 10× CaCl2 (10 mM) in HBSS, and changes in cellular fluorescence are measured with the FLIPR^384 plate reader. In each well, the magnitude of the fluorescence signal as a result of calcium entry into the cell is determined by calculating the difference between the peak fluorescence signal measured after calcium addition and the initial baseline fluorescence signal (designated Peak-Basal). IC50 values are typically calculated as the concentration that inhibited 50% of the Peak-Basal signal (Table A).

T1 sequence (Q96D31 whole entry): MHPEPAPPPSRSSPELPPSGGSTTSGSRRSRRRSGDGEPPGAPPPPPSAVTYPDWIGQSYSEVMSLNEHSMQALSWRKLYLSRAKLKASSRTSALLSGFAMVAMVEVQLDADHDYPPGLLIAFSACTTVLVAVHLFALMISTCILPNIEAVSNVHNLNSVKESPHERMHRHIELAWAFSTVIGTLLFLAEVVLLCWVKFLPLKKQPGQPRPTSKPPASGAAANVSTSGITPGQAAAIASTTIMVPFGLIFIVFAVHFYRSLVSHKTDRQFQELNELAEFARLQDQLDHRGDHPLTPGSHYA

| Compound | pIC50 [1] | pIC50 [2] | Orai1/STIM1 (IC50, μmol) [2] |
| --- | --- | --- | --- |
| Cc1nocc1C(=O)Nc1ccc(-c2cc3c(cc2Cl)OC(F)(F)O3)cn1 [Example 18, N-(5-(6-chloro-2,2-difluorobenzo[d][1,3]dioxol-5-yl)pyridin-2-yl)-3-methylisoxazole-4-carboxamide] | > 6.22 | > 6.22 |  |
| Cc1nn(C)c(C(=O)Nc2cnc(-c3cc4c(cc3Cl)OC(F)(F)O4)cn2)c1Cl [Example 23, 4-chloro-N-(5-(6-chloro-2,2-difluorobenzo[d][1,3]dioxol-5-yl)pyrazin-2-yl)-1,3-dimethyl-1H-pyrazole-5-carboxamide] |  |  | — |
| Cc1cc2c(cc1-c1ccc(NC(=O)c3cccn3C)nc1)OC(F)(F)O2 [Example 34, N-(5-(2,2-difluoro-6-methylbenzo[d][1,3]dioxol-5-yl)pyridin-2-yl)-1-methyl-1H-pyrrole-2-carboxamide] | > 6.22 | 5.92 to 6.22 |  |
| Cc1onc(C(=O)Nc2ccc(-c3cc4c(cc3Cl)OC(F)(F)O4)cn2)c1C [Example 5, N-(5-(6-chloro-2,2-difluorobenzo[d][1,3]dioxol-5-yl)pyridin-2-yl)-4,5-dimethylisoxazole-3-carboxamide] | 5.92 to 6.22 |  | — |
| CCn1nccc1C(=O)Nc1ccc(-c2cc3c(cc2Cl)OC(F)(F)O3)cn1 [Example 12, N-(5-(6-chloro-2,2-difluorobenzo[d][1,3]dioxol-5-yl)pyridin-2-yl)-1-ethyl-1H-pyrazole-5-carboxamide] | 5.92 to 6.22 | 5.92 to 6.22 |  |
| Cn1ncc(C(=O)Nc2ccc(-c3cc4c(cc3Cl)OC(F)(F)O4)cn2)c1C(F)(F)F [Example 4, N-(5-(6-chloro-2,2-difluorobenzo[d][1,3]dioxol-5-yl)pyridin-2-yl)-1-methyl-5-(trifluoromethyl)-1H-pyrazole-4-carboxamide] | < 5.92 |  | — |
| Cn1nc(C(F)(F)F)cc1-c1cnc(NC(=O)c2c(Cl)cnn2C)cn1 [Example 39, 4-chloro-1-methyl-N-(5-(1-methyl-3-(trifluoromethyl)-1H-pyrazol-5-yl)pyrazin-2-yl)-1H-pyrazole-5-carboxamide] | < 5.92 | < 5.92 |  |
| Cc1nscc1C(=O)Nc1ccc(-c2cc3c(cc2Cl)OC(F)(F)O3)cn1 [Example 15, N-(5-(6-chloro-2,2-difluorobenzo[d][1,3]dioxol-5-yl)pyridin-2-yl)-3-methylisothiazole-4-carboxamide] | > 6.22 | > 6.22 |  |
| Cc1cc2c(cc1-c1cnc(NC(=O)c3c(Cl)cnn3C)cn1)OC(F)(F)O2 [Example 35, 4-chloro-N-(5-(2,2-difluoro-6-methylbenzo[d][1,3]dioxol-5-yl)pyrazin-2-yl)-1-methyl-1H-pyrazole-5-carboxamide] | > 6.22 | > 6.22 |  |
| O=C(Nc1ccc(-c2cc3c(cc2Cl)OC(F)(F)O3)cn1)c1ccnn1C(F)F [Example 13, N-(5-(6-chloro-2,2-difluorobenzo[d][1,3]dioxol-5-yl)pyridin-2-yl)-1-(difluoromethyl)-1H-pyrazole-5-carboxamide] | < 5.92 | 5.92 to 6.22 |  |
| Cc1noc(C)c1C(=O)Nc1ccc(-c2cc3c(cc2Cl)OC(F)(F)O3)cn1 [Example 11, N-(5-(6-chloro-2,2-difluorobenzo[d][1,3]dioxol-5-yl)pyridin-2-yl)-3,5-dimethylisoxazole-4-carboxamide] | > 6.22 | > 6.22 |  |
| Cc1cc2c(cc1-c1cnc(NC(=O)c3c(C)noc3C)cn1)OC(F)(F)O2 [Example 38, N-(5-(2,2-difluoro-6-methylbenzo[d][1,3]dioxol-5-yl)pyrazin-2-yl)-3,5-dimethylisoxazole-4-carboxamide] | > 6.22 | < 5.92 |  |
| Cn1ncc(C(=O)Nc2cnc(-c3cc4c(cc3Cl)OC(F)(F)O4)cn2)c1C(F)(F)F [Example 22, N-(5-(6-chloro-2,2-difluorobenzo[d][1,3]dioxol-5-yl)pyrazin-2-yl)-1-methyl-5-(trifluoromethyl)-1H-pyrazole-4-carboxamide] |  |  | — |
| Cc1nc(C(F)(F)F)c(C(=O)Nc2ccc(-c3cc4c(cc3Cl)OC(F)(F)O4)cn2)s1 [Example 17, N-(5-(6-chloro-2,2-difluorobenzo[d][1,3]dioxol-5-yl)pyridin-2-yl)-2-methyl-4-(trifluoromethyl)thiazole-5-carboxamide] | > 6.22 | < 5.92 |  |
| Cc1nc(C(=O)Nc2ccc(-c3cc4c(cc3Cl)OC(F)(F)O4)cn2)c(C(F)(F)F)o1 [Example 19, N-(5-(6-chloro-2,2-difluorobenzo[d][1,3]dioxol-5-yl)pyridin-2-yl)-2-methyl-5-(trifluoromethyl)oxazole-4-carboxamide] |  |  | — |
| CCn1nccc1C(=O)Nc1cnc(-c2cc3c(cc2Cl)OC(F)(F)O3)cn1 [Example 32, N-(5-(6-chloro-2,2-difluorobenzo[d][1,3]dioxol-5-yl)pyrazin-2-yl)-1-ethyl-1H-pyrazole-5-carboxamide] | > 6.22 | > 6.22 |  |
| O=C(Nc1cnc(-c2cc3c(cc2Cl)OC(F)(F)O3)cn1)c1ccnn1C(F)F [Example 33, N-(5-(6-chloro-2,2-difluorobenzo[d][1,3]dioxol-5-yl)pyrazin-2-yl)-1-(difluoromethyl)-1H-pyrazole-5-carboxamide] | > 6.22 |  | — |
| Cc1nn(C)c(C(=O)Nc2cnc(-c3cc(C(F)(F)F)nn3C)cn2)c1Cl [Example 40, 4-chloro-1,3-dimethyl-N-(5-(1-methyl-3-(trifluoromethyl)-1H-pyrazol-5-yl)pyrazin-2-yl)-1H-pyrazole-5-carboxamide] | < 5.92 | < 5.92 |  |
| Cn1nc(C(F)(F)F)c(Cl)c1C(=O)Nc1ccc(-c2cc3c(cc2Cl)OC(F)(F)O3)cn1 [Example 3, 4-chloro-N-(5-(6-chloro-2,2-difluorobenzo[d][1,3]dioxol-5-yl)pyridin-2-yl)-1-methyl-3-(trifluoromethyl)-1H-pyrazole-5-carboxamide] | > 6.22 |  | — |
| Cn1cc(Cl)c(C(=O)Nc2cnc(-c3cc4c(cc3Cl)OC(F)(F)O4)cn2)n1 [Example 28, 4-chloro-N-(5-(6-chloro-2,2-difluorobenzo[d][1,3]dioxol-5-yl)pyrazin-2-yl)-1-methyl-1H-pyrazole-3-carboxamide] |  |  | — |
| Cc1nc(C)c(C(=O)Nc2ccc(-c3cc4c(cc3Cl)OC(F)(F)O4)cn2)o1 [Example 21, N-(5-(6-chloro-2,2-difluorobenzo[d][1,3]dioxol-5-yl)pyridin-2-yl)-2,4-dimethyloxazole-5-carboxamide] |  | < 5.92 |  |
| Cc1cc2c(cc1-c1cnc(NC(=O)c3c(Cl)c(C)nn3C)cn1)OC(F)(F)O2 [Example 36, 4-chloro-N-(5-(2,2-difluoro-6-methylbenzo[d][1,3]dioxol-5-yl)pyrazin-2-yl)-1,3-dimethyl-1H-pyrazole-5-carboxamide] |  |  | — |
| CCn1nc(C)cc1C(=O)Nc1cnc(-c2cc3c(cc2Cl)OC(F)(F)O3)cn1 [Example 26] | < 5.92 |  |  |
| Cc1oncc1C(=O)Nc1cnc(-c2cc3c(cc2Cl)OC(F)(F)O3)cn1 [Example 30, N-(5-(6-chloro-2,2-difluorobenzo[d][1,3]dioxol-5-yl)pyrazin-2-yl)-5-methylisoxazole-4-carboxamide] |  |  | — |
| Cc1oncc1C(=O)Nc1ccc(-c2cc3c(cc2Cl)OC(F)(F)O3)cn1 [Example 10, N-(5-(6-chloro-2,2-difluorobenzo[d][1,3]dioxol-5-yl)pyridin-2-yl)-5-methylisoxazole-4-carboxamide] |  |  | — |

From patent US9856240B2, “Compounds that modulate intracellular calcium” (CalciMedica, Inc., priority 2011, dated 2018)
